Measured values: patent US6974814B2, “Neuropharmacological treatment of sleep-related breathing disorders” (The Board of Trustees of the University of Illinois, priority 1999, dated 2005)

How the values were obtained:
sleep apnea = settings: cited from earlier work; for effect in individuals with central apnea: central apneas
apnea = settings: animal model of sleep apnea; cited from earlier work
[1] = tested on: intertrigeminal region of the brainstem; settings: administration into the brainstem; cited from earlier work
[2] = individuals with obstructive sleep apnea

## Cn1c(=O)c2[nH]cnc2n(C)c1=O [theophylline]
Sleep apnea
  effect in individuals with central apnea: may benefit
  effect in individuals with obstructive sleep apnea (OSAS): of no use

## C=CCN1CC[C@]23c4c5ccc(O)c4O[C@H]2C(=O)CC[C@@]3(O)[C@H]1C5 [naloxone]
Sleep apnea
  effect in individuals with obstructive sleep apnea (OSAS): only slightly helpful

## medroxyprogesterone
Sleep apnea
  effect in individuals with obstructive sleep apnea (OSAS): no consistent benefit

## Nc1ncnc2c1ncn2[C@@H]1O[C@H](CO)[C@@H](O)[C@H]1O [adenosine]
apnea
  effect on apnea: somewhat effective in reducing apnea

## CC(=O)Nc1nnc(S(N)(=O)=O)s1 [acetazolamide]
Sleep apnea
  effect in individuals with central apnea: variable improvement
  effect in individuals with obstructive sleep apnea (OSAS): increase in obstructive apneas

## N[C@@H](CCC(=O)O)C(=O)O [glutamate]
[1]
  effect on breathing (reflex apneas): provoked reflex apneas

## Nc1nc2ccc(OC(F)(F)F)cc2s1 [riluzole]
Spontaneous apneas; NREM sleep, 4.0 mg/kg intraperitoneal 15 min before 6 h recording, vs saline, p=0.05
  average decrease in apnea expression (apneas per hour of NREM sleep): 31%
Spontaneous apneas; NREM sleep, 4.0 mg/kg intraperitoneal, vs saline
  animals with a decrease in apnea expression: 5 of 7
Spontaneous apneas; REM sleep, 4.0 mg/kg intraperitoneal 15 min before 6 h recording, vs saline, p=0.11
  average decrease in apnea expression (apneas per hour of REM sleep): 27%
Spontaneous apneas; both NREM and REM sleep
  overall effect on production of spontaneous sleep apneas: physiologically significant decrease

## CNCCCC1c2ccccc2C=Cc2ccccc21 [Protriptyline]
Sleep apnea
  effect in individuals with obstructive sleep apnea (OSAS): variable results
Sleep apnea; several small trials in OSAS
  side effects: frequent and significant side effects

## CCN1CC(CCN2CCOCC2)C(c2ccccc2)(c2ccccc2)C1=O (stereo not shown) [doxapram]
Sleep apnea; [2]
  average arterial oxygen saturation: did not alter
  length of apneas: decrease the length of apneas
